Laboratory results as given in the supplement of paper PMC10307832.

How the values were obtained:
Assay in all cases: relative viability (nuclei count vs DMSO), 5 days (fraction); higher = more cells survive
RO-3306 + Luminespib = compound: C1=CC2=C(C=CC(=C2)C=C3C(=O)NC(=NCC4=CC=CS4)S3)N=C1 [RO-3306] + CCNC(=O)c1noc(-c2cc(C(C)C)c(O)cc2O)c1-c1ccc(CN2CCOCC2)cc1 [Luminespib] (partner 0.01 µM)
Method in brief: (§1)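 Lung cancer cell lines were pin-tool dosed in 1536-well plates on the day after seeding, with either a lone drug or a fixed anchor-drug dose plus five library-drug doses (not always all listed) in √10 steps. Nuclei were counted on 4× images after 5 days. Relative viability is the ratio of treated-well to vehicle-well nuclei counts, with each value a median of duplicate plates.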

RO-3306 + Pictilisib = compound: C1=CC2=C(C=CC(=C2)C=C3C(=O)NC(=NCC4=CC=CS4)S3)N=C1 [RO-3306] + CS(=O)(=O)N1CCN(Cc2cc3nc(-c4cccc5[nH]ncc45)nc(N4CCOCC4)c3s2)CC1 [Pictilisib] (partner 1 µM)
Method in brief: as §1

RO-3306 + Alpelisib = compound: C1=CC2=C(C=CC(=C2)C=C3C(=O)NC(=NCC4=CC=CS4)S3)N=C1 [RO-3306] + Cc1nc(NC(=O)N2CCC[C@H]2C(N)=O)sc1-c1ccnc(C(C)(C)C(F)(F)F)c1 [Alpelisib] (partner 2 µM)
Method in brief: as §1

[1] = compound: O=S(=O)(c1ccccc1)N(CC(F)(F)F)c1ccc(C(O)(C(F)(F)F)C(F)(F)F)cc1 + CC(C)C[C@H](NC(=O)[C@H](Cc1ccccc1)NC(=O)c1cnccn1)B(O)O [Bortezomib] (partner 0.002 µM)
Method in brief: as §1

| Cell Line | relative viability (RO-3306 + Luminespib; first compound 0.01 µM) | relative viability (RO-3306 + Luminespib; first compound 0.03162 µM) | relative viability (RO-3306 + Luminespib; first compound 0.1 µM) | relative viability (RO-3306 + Luminespib; first compound 0.3162 µM) | relative viability (RO-3306 + Luminespib; first compound 1 µM) | relative viability (RO-3306 + Pictilisib; first compound 0.01 µM) | relative viability (RO-3306 + Pictilisib; first compound 0.03162 µM) | relative viability (RO-3306 + Pictilisib; first compound 0.1 µM) | relative viability (RO-3306 + Pictilisib; first compound 0.3162 µM) | relative viability (RO-3306 + Pictilisib; first compound 1 µM) | relative viability (RO-3306 + Alpelisib; first compound 0.01 µM) | relative viability (RO-3306 + Alpelisib; first compound 0.03162 µM) | relative viability (RO-3306 + Alpelisib; first compound 0.1 µM) | relative viability (RO-3306 + Alpelisib; first compound 0.3162 µM) | relative viability (RO-3306 + Alpelisib; first compound 1 µM) | relative viability ([1]; first compound 0.8 µM) | relative viability ([1]; first compound 2.53 µM) | relative viability ([1]; first compound 8 µM) |
| --- | --- | --- | --- | --- | --- | --- | --- | --- | --- | --- | --- | --- | --- | --- | --- | --- | --- | --- |
| NCI-H2126 | 0.867 | 0.858 | 0.895 | 1 | 0.949 | 0.413 | 0.426 | 0.506 | 0.425 | 0.477 | 0.717 | 0.698 | 0.752 | 0.786 | 0.8 | 1.26 | 1.1 | 1.12 |
| HARA | 0.485 | 0.509 | 0.676 | 0.455 | 0.679 | 0.367 | 0.247 | 0.457 | 0.394 | 0.358 | 1.05 | 0.754 | 0.953 | 0.973 | 0.795 | 1.12 | 1.04 | 1.04 |
| NCI-H23 | 0.237 |  |  | 0.216 | 0.204 | 0.507 | 0.468 | 0.433 | 0.451 | 0.433 | 0.729 | 0.685 | 0.573 | 0.69 | 0.517 | 1.45 | 1.23 | 1.09 |
| EKVX | 1.02 | 0.689 | 0.841 | 0.959 | 0.905 | 0.402 | 0.362 | 0.449 | 0.498 | 0.431 | 0.958 | 0.833 | 0.841 | 1.02 | 0.83 | 1.1 | 0.918 | 1.15 |
| NCI-H1755 | 0.435 | 0.3 | 0.275 | 0.269 | 0.484 | 0.523 | 0.376 | 0.424 | 0.457 | 0.473 | 1.02 | 0.772 | 0.958 | 0.904 | 0.859 | 1.07 | 0.933 | 1.03 |
| NCI-H460 | 0.033 | 0.029 | 0.0336 | 0.0289 | 0.0305 | 0.388 | 0.374 | 0.371 | 0.329 | 0.32 | 0.571 |  | 0.503 | 0.656 | 0.426 | 1.29 | 1.03 | 1.02 |
| NCI-H2405 | 0.753 | 0.705 | 0.849 | 0.607 | 0.7 | 0.369 | 0.433 | 0.496 | 0.534 | 0.427 | 0.801 | 0.707 | 0.784 | 0.874 | 0.695 | 1.02 | 0.952 | 0.885 |
| LU99A | 0.203 | 0.245 | 0.233 | 0.25 | 0.275 | 0.33 | 0.292 | 0.343 | 0.284 | 0.295 | 0.492 | 0.452 | 0.564 | 0.472 | 0.491 | 1.34 | 1.17 | 1.16 |
